According to PubChem BioAssay AID248 (DTP/NCI, 2004):
Where “and” joins values, the source holds several entries; their conditions need not be identical. Identical values can stand only once. Toxic doses and inconclusive results are not listed. Cut-off read from the data, not from the text of the source: active = T/C of 150% or more; inactive = T/C below 125%.

Test system: L1210 leukemia ip in BDF1 mice, survival T/C
Assay: NCI In Vivo Anticancer Drug Screen. Data for tumor model L1210 Leukemia (intraperitoneal) in B6D2F1 (BDF1) mice
Details: higher = longer survival
Procedure, shortened: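 Transplanted-tumor mice were given test agent; controls received vehicle only. Survival readings from the two groups were divided (treated over control).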

Measured: T/C

CO[C@H]1/C=C/O[C@@]2(C)Oc3c(C)c(O)c4c(O)c(c(/C=N/N5C(C)CN(Cc6ccccc6)CC5C)c(O)c4c3C2=O)NC(=O)/C(C)=C\C=C\[C@H](C)[C@H](O)[C@@H](C)[C@@H](O)[C@@H](C)[C@H](OC(C)=O)[C@@H]1C (some centres not stated)
inactive: endpoint: mean survival time, dose: 12.5 mg/kg/injection, schedule: Q02DX Z (oral), vehicle: Klucel (hydroxypropylcellulose) (HPC) 100 % of control | endpoint: mean survival time, dose: 25.0 mg/kg/injection, schedule: Q02DX Z (oral), vehicle: Klucel (hydroxypropylcellulose) (HPC) 95 % of control and 98 % of control | endpoint: mean survival time, dose: 50.0 mg/kg/injection, schedule: Q01DX009 (ip), vehicle: Klucel (hydroxypropylcellulose) (HPC) 97 % of control | endpoint: mean survival time, dose: 50.0 mg/kg/injection, schedule: Q02DX Z (oral), vehicle: Klucel (hydroxypropylcellulose) (HPC) 93 % of control and 96 % of control | endpoint: mean survival time, dose: 100.0 mg/kg/injection, schedule: Q01DX009 (ip), vehicle: Klucel (hydroxypropylcellulose) (HPC) 101 % of control | endpoint: mean survival time, dose: 100.0 mg/kg/injection, schedule: Q02DX Z (oral), vehicle: Klucel (hydroxypropylcellulose) (HPC) 100 % of control and 106 % of control | endpoint: mean survival time, dose: 100.0 mg/kg/injection, schedule: Q04DX003 (ip), vehicle: Klucel (hydroxypropylcellulose) (HPC) 97 % of control | endpoint: mean survival time, dose: 200.0 mg/kg/injection, schedule: Q01DX009 (ip), vehicle: Klucel (hydroxypropylcellulose) (HPC) 100 % of control | endpoint: mean survival time, dose: 200.0 mg/kg/injection, schedule: Q02DX Z (oral), vehicle: Klucel (hydroxypropylcellulose) (HPC) 96 % of control and 98 % of control | endpoint: mean survival time, dose: 200.0 mg/kg/injection, schedule: Q04DX003 (ip), vehicle: Klucel (hydroxypropylcellulose) (HPC) 95 % of control | endpoint: mean survival time, dose: 400.0 mg/kg/injection, schedule: Q02DX Z (oral), vehicle: Klucel (hydroxypropylcellulose) (HPC) 107 % of control and 91 % of control | endpoint: mean survival time, dose: 400.0 mg/kg/injection, schedule: Q04DX003 (ip), vehicle: Klucel (hydroxypropylcellulose) (HPC) 103 % of control | endpoint: mean survival time, dose: 800.0 mg/kg/injection, schedule: Q02DX Z (oral), vehicle: Klucel (hydroxypropylcellulose) (HPC) 101 % of control and 104 % of control | endpoint: mean survival time, dose: 1600.0 mg/kg/injection, schedule: Q02DX Z (oral), vehicle: Klucel (hydroxypropylcellulose) (HPC) 95 % of control and 89 % of control | endpoint: median survival time, dose: 6.25 mg/kg/injection, schedule: Q01DX005 (ip), vehicle: other 106 % of control | endpoint: median survival time, dose: 12.5 mg/kg/injection, schedule: Q01DX005 (ip), vehicle: Klucel (hydroxypropylcellulose) (HPC) 110 % of control | endpoint: median survival time, dose: 12.5 mg/kg/injection, schedule: Q01DX005 (ip), vehicle: other 107 % of control | endpoint: median survival time, dose: 12.5 mg/kg/injection, schedule: Q01DX005 (oral), vehicle: other 117 % of control | endpoint: median survival time, dose: 25.0 mg/kg/injection, schedule: Q01DX005 (ip), vehicle: Klucel (hydroxypropylcellulose) (HPC) 101 % of control | endpoint: median survival time, dose: 25.0 mg/kg/injection, schedule: Q01DX005 (ip), vehicle: other 111 % of control | endpoint: median survival time, dose: 25.0 mg/kg/injection, schedule: Q01DX005 (oral), vehicle: Klucel (hydroxypropylcellulose) (HPC) 117 % of control | endpoint: median survival time, dose: 25.0 mg/kg/injection, schedule: Q01DX005 (oral), vehicle: other 114 % of control and 119 % of control | endpoint: median survival time, dose: 25.0 mg/kg/injection, schedule: Q02DX005 (oral), vehicle: other 104 % of control | endpoint: median survival time, dose: 50.0 mg/kg/injection, schedule: Q01DX005 (ip), vehicle: Klucel (hydroxypropylcellulose) (HPC) 97 % of control | endpoint: median survival time, dose: 50.0 mg/kg/injection, schedule: Q01DX005 (ip), vehicle: other 117 % of control | endpoint: median survival time, dose: 50.0 mg/kg/injection, schedule: Q01DX005 (oral), vehicle: Klucel (hydroxypropylcellulose) (HPC) 114 % of control | endpoint: median survival time, dose: 50.0 mg/kg/injection, schedule: Q01DX005 (oral), vehicle: other 93 % of control and 111 % of control | endpoint: median survival time, dose: 50.0 mg/kg/injection, schedule: Q02DX005 (oral), vehicle: other 104 % of control | endpoint: median survival time, dose: 100.0 mg/kg/injection, schedule: Q01DX005 (ip), vehicle: Klucel (hydroxypropylcellulose) (HPC) 106 % of control | endpoint: median survival time, dose: 100.0 mg/kg/injection, schedule: Q01DX005 (ip), vehicle: other 103 % of control | endpoint: median survival time, dose: 100.0 mg/kg/injection, schedule: Q01DX005 (oral), vehicle: Klucel (hydroxypropylcellulose) (HPC) 114 % of control | endpoint: median survival time, dose: 100.0 mg/kg/injection, schedule: Q01DX005 (oral), vehicle: other 93 % of control and 107 % of control | endpoint: median survival time, dose: 100.0 mg/kg/injection, schedule: Q02DX005 (oral), vehicle: other 104 % of control | endpoint: median survival time, dose: 200.0 mg/kg/injection, schedule: Q01DX005 (ip), vehicle: Klucel (hydroxypropylcellulose) (HPC) 92 % of control | endpoint: median survival time, dose: 200.0 mg/kg/injection, schedule: Q01DX005 (oral), vehicle: Klucel (hydroxypropylcellulose) (HPC) 94 % of control and 117 % of control | endpoint: median survival time, dose: 200.0 mg/kg/injection, schedule: Q01DX005 (oral), vehicle: other 98 % of control and 111 % of control | endpoint: median survival time, dose: 200.0 mg/kg/injection, schedule: Q02DX005 (oral), vehicle: Klucel (hydroxypropylcellulose) (HPC) 100 % of control | endpoint: median survival time, dose: 200.0 mg/kg/injection, schedule: Q02DX005 (oral), vehicle: other 119 % of control | endpoint: median survival time, dose: 400.0 mg/kg/injection, schedule: Q01DX005 (ip), vehicle: Klucel (hydroxypropylcellulose) (HPC) 102 % of control | endpoint: median survival time, dose: 400.0 mg/kg/injection, schedule: Q01DX005 (oral), vehicle: Klucel (hydroxypropylcellulose) (HPC) 104 % of control and 114 % of control | endpoint: median survival time, dose: 400.0 mg/kg/injection, schedule: Q02DX005 (oral), vehicle: Klucel (hydroxypropylcellulose) (HPC) 101 % of control | endpoint: median survival time, dose: 800.0 mg/kg/injection, schedule: Q01DX005 (ip), vehicle: Klucel (hydroxypropylcellulose) (HPC) 104 % of control | endpoint: median survival time, dose: 800.0 mg/kg/injection, schedule: Q01DX005 (oral), vehicle: Klucel (hydroxypropylcellulose) (HPC) 101 % of control | endpoint: median survival time, dose: 800.0 mg/kg/injection, schedule: Q02DX005 (oral), vehicle: Klucel (hydroxypropylcellulose) (HPC) 104 % of control | endpoint: median survival time, dose: 1600.0 mg/kg/injection, schedule: Q01DX005 (oral), vehicle: Klucel (hydroxypropylcellulose) (HPC) 104 % of control and 114 % of control | endpoint: median survival time, dose: 1600.0 mg/kg/injection, schedule: Q02DX005 (oral), vehicle: Klucel (hydroxypropylcellulose) (HPC) 119 % of control

CNC(=O)NS(=O)(=O)c1ccc([N+](=O)[O-])cc1
inactive: endpoint: mean survival time, dose: 100.0 mg/kg/injection, schedule: Q01DX001 (ip), vehicle: carboxymethylcellulose (CMC) 95 % of control | endpoint: mean survival time, dose: 200.0 mg/kg/injection, schedule: Q01DX001 (ip), vehicle: carboxymethylcellulose (CMC) 91 % of control | endpoint: mean survival time, dose: 400.0 mg/kg/injection, schedule: Q01DX001 (ip), vehicle: carboxymethylcellulose (CMC) 92 % of control

N=C1c2ccccc2-c2ccccc21
inactive: endpoint: mean survival time, dose: 100.0 mg/kg/injection, schedule: Q04DX003 (ip), vehicle: saline with Tween-80 96 % of control | endpoint: mean survival time, dose: 200.0 mg/kg/injection, schedule: Q04DX003 (ip), vehicle: saline with Tween-80 88 % of control

Nc1cc(N)c(N)cc1N
inactive: endpoint: mean survival time, dose: 9.38 mg/kg/injection, schedule: Q01DX001 (ip), vehicle: saline 95 % of control | endpoint: mean survival time, dose: 18.75 mg/kg/injection, schedule: Q01DX001 (ip), vehicle: saline 101 % of control | endpoint: mean survival time, dose: 37.5 mg/kg/injection, schedule: Q01DX001 (ip), vehicle: saline 111 % of control

NC/C=N/N=C(N)N
inactive: endpoint: mean survival time, dose: 15.0 mg/kg/injection, schedule: Q01DX Z (ip), vehicle: saline 97 % of control | endpoint: mean survival time, dose: 30.0 mg/kg/injection, schedule: Q01DX Z (ip), vehicle: saline 96 % of control | endpoint: mean survival time, dose: 60.0 mg/kg/injection, schedule: Q01DX Z (ip), vehicle: saline 94 % of control | endpoint: mean survival time, dose: 120.0 mg/kg/injection, schedule: Q01DX Z (ip), vehicle: saline 87 % of control | endpoint: mean survival time, dose: 120.0 mg/kg/injection, schedule: Q01DX Z (oral), vehicle: saline 101 % of control | endpoint: mean survival time, dose: 240.0 mg/kg/injection, schedule: Q01DX Z (oral), vehicle: saline 101 % of control | endpoint: mean survival time, dose: 480.0 mg/kg/injection, schedule: Q01DX Z (oral), vehicle: saline 103 % of control | endpoint: mean survival time, dose: 960.0 mg/kg/injection, schedule: Q01DX Z (oral), vehicle: saline 98 % of control
